Experiments:
[1] = tested on: paddy rice plant (cultivar: Nihonbare); assay: Test Example 3: phytotoxicity test for transplanted paddy rice plant; format: in vivo; conditions: transplanted rice, 21 days after treatment
Summary of the method: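 Clay loam soil was placed in a 75 cm^2 plastic pot and flooded to a water depth of 5 cm. Two Nihonbare paddy rice plants at the two-leaf stage were transplanted 1 cm deep and grown in a hot house. After treatment, pots stayed in the hot house for 21 days, and phytotoxicity was then graded against an untreated control.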

[2] = tested on: false pimpernel; assay: Test Example 1: herbicidal efficacy on rice paddy weeds pre-emergence; format: in vivo, Lindernia pyxidaria; conditions: 21 days
[3] = tested on: bulrush; assay: as above; format: in vivo, Scirpus juncoides; conditions: 21 days
[4] = tested on: bulrush; assay: Test Example 2: herbicidal efficacy on rice paddy weeds post-emergence; format: in vivo, Scirpus juncoides; conditions: post-emergence, one leaf stage, 21 days after treatment
[5] = tested on: barnyard glass; assay: as above; format: in vivo, Echinochloa crus-galli; conditions: post-emergence, one leaf stage, 21 days after treatment
Summary of the method: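 Plastic pots of 75 cm^2 were filled with clay loam soil and sown with barnyard glass and bulrush seeds, then topped with 75 cm^3 soil containing false pimpernel seeds. The pots were flooded to 5 cm water depth and held in a hot house. Twenty-one days after treatment, herbicidal efficacy was graded against an untreated control.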

[6] = tested on: false pimpernel; assay: as above; format: in vivo, Lindernia pyxidaria; conditions: post-emergence, one leaf stage, 21 days after treatment
[7] = dosage 1000 g/ha, treated 5 days after transplantation

SMILES	Phytotoxicity to paddy rice ([1]; dosage 300 g/ha)	False pimpernel pre (herbicidal efficacy grade) ([2]; dosage 300 g/ha)	Bulrush pre (herbicidal efficacy grade) ([3]; dosage 300 g/ha)	Bulrush post (herbicidal efficacy grade) ([4]; dosage 300 g/ha)	Burnyard grass post (herbicidal efficacy grade) ([5]; dosage 300 g/ha)	False pimpernel post (herbicidal efficacy grade) ([6]; dosage 300 g/ha)	Phytotoxicity to paddy rice [1, 7]	False pimpernel pre (herbicidal efficacy grade) ([2]; dosage 1000 g/ha)	Bulrush pre (herbicidal efficacy grade) ([3]; dosage 1000 g/ha)	Bulrush post (herbicidal efficacy grade) ([4]; dosage 1000 g/ha)	Burnyard grass post (herbicidal efficacy grade) ([5]; dosage 1000 g/ha)	False pimpernel post (herbicidal efficacy grade) ([6]; dosage 1000 g/ha)
CC(=O)OCC1CN(Cc2ccccc2NS(=O)(=O)C(F)(F)F)C(=O)O1 (stereo not drawn) [Compound 1-37]	0 (0% of herbicidal efficacy or phytotoxicity)	1 (1%-39% of herbicidal efficacy or phytotoxicity)	0 (0% of herbicidal efficacy or phytotoxicity)	0 (0% of herbicidal efficacy or phytotoxicity)	0 (0% of herbicidal efficacy or phytotoxicity)	3 (70%-89% of herbicidal efficacy or phytotoxicity)	–	–	–	–	–	–
CC(=O)OCC1CN(Cc2ccccc2N(C(=O)OCC(C)C)S(=O)(=O)C(F)(F)F)C(=O)O1 (stereo not drawn) [Compound 1-38]	0 (0% of herbicidal efficacy or phytotoxicity)	2 (40%-69% of herbicidal efficacy or phytotoxicity)	3 (70%-89% of herbicidal efficacy or phytotoxicity)	3 (70%-89% of herbicidal efficacy or phytotoxicity)	1 (1%-39% of herbicidal efficacy or phytotoxicity)	1 (1%-39% of herbicidal efficacy or phytotoxicity)	–	–	–	–	–	–
O=C1OC(CCl)CN1Cc1ccccc1NS(=O)(=O)C(F)(F)F (stereo not drawn) [Compound 1-39]	–	–	–	–	–	–	0 (0% of herbicidal efficacy or phytotoxicity)	4 (90%-100% of herbicidal efficacy or phytotoxicity)	4 (90%-100% of herbicidal efficacy or phytotoxicity)	4 (90%-100% of herbicidal efficacy or phytotoxicity)	2 (40%-69% of herbicidal efficacy or phytotoxicity)	4 (90%-100% of herbicidal efficacy or phytotoxicity)
O=C1OC(c2ccccc2)CN1Cc1ccccc1NS(=O)(=O)C(F)(F)F (stereo not drawn) [Compound 1-41]	–	–	–	–	–	–	1 (1%-39% of herbicidal efficacy or phytotoxicity)	4 (90%-100% of herbicidal efficacy or phytotoxicity)	4 (90%-100% of herbicidal efficacy or phytotoxicity)	3 (70%-89% of herbicidal efficacy or phytotoxicity)	4 (90%-100% of herbicidal efficacy or phytotoxicity)	2 (40%-69% of herbicidal efficacy or phytotoxicity)
CC(C)COC(=O)N(c1ccccc1CN1CC(c2ccccc2)OC1=O)S(=O)(=O)C(F)(F)F (stereo not drawn) [Compound 1-42]	–	–	–	–	–	–	0 (0% of herbicidal efficacy or phytotoxicity)	4 (90%-100% of herbicidal efficacy or phytotoxicity)	3 (70%-89% of herbicidal efficacy or phytotoxicity)	3 (70%-89% of herbicidal efficacy or phytotoxicity)	4 (90%-100% of herbicidal efficacy or phytotoxicity)	3 (70%-89% of herbicidal efficacy or phytotoxicity)
O=C1OC2(CCCCC2)CN1Cc1ccccc1NS(=O)(=O)C(F)(F)F [Compound 1-45]	–	–	–	–	–	–	2 (40%-69% of herbicidal efficacy or phytotoxicity)	4 (90%-100% of herbicidal efficacy or phytotoxicity)	4 (90%-100% of herbicidal efficacy or phytotoxicity)	4 (90%-100% of herbicidal efficacy or phytotoxicity)	4 (90%-100% of herbicidal efficacy or phytotoxicity)	4 (90%-100% of herbicidal efficacy or phytotoxicity)
O=C1OC2CCCCC2N1Cc1ccccc1NS(=O)(=O)C(F)(F)F (stereo not drawn) [Compound 1-47]	–	–	–	–	–	–	2 (40%-69% of herbicidal efficacy or phytotoxicity)	4 (90%-100% of herbicidal efficacy or phytotoxicity)	4 (90%-100% of herbicidal efficacy or phytotoxicity)	4 (90%-100% of herbicidal efficacy or phytotoxicity)	4 (90%-100% of herbicidal efficacy or phytotoxicity)	4 (90%-100% of herbicidal efficacy or phytotoxicity)
CC[C@H]1CN(Cc2ccccc2NS(=O)(=O)C(F)(F)F)C(=O)O1 [Compound 1-55]	–	–	–	–	–	–	1 (1%-39% of herbicidal efficacy or phytotoxicity)	4 (90%-100% of herbicidal efficacy or phytotoxicity)	4 (90%-100% of herbicidal efficacy or phytotoxicity)	4 (90%-100% of herbicidal efficacy or phytotoxicity)	4 (90%-100% of herbicidal efficacy or phytotoxicity)	4 (90%-100% of herbicidal efficacy or phytotoxicity)
CC[C@H]1CN(Cc2ccccc2N(C(=O)OCC(C)C)S(=O)(=O)C(F)(F)F)C(=O)O1 [Compound 1-56]	1 (1%-39% of herbicidal efficacy or phytotoxicity)	4 (90%-100% of herbicidal efficacy or phytotoxicity)	4 (90%-100% of herbicidal efficacy or phytotoxicity)	4 (90%-100% of herbicidal efficacy or phytotoxicity)	4 (90%-100% of herbicidal efficacy or phytotoxicity)	3 (70%-89% of herbicidal efficacy or phytotoxicity)	–	–	–	–	–	–
CC(C)(C)C1(C)CN(Cc2ccccc2NS(=O)(=O)C(F)(F)F)C(=O)O1 (stereo not drawn) [Compound 1-69]	1 (1%-39% of herbicidal efficacy or phytotoxicity)	4 (90%-100% of herbicidal efficacy or phytotoxicity)	4 (90%-100% of herbicidal efficacy or phytotoxicity)	4 (90%-100% of herbicidal efficacy or phytotoxicity)	3 (70%-89% of herbicidal efficacy or phytotoxicity)	4 (90%-100% of herbicidal efficacy or phytotoxicity)	–	–	–	–	–	–
CC(C)COC(=O)N(c1ccccc1CN1CC(C)(C(C)(C)C)OC1=O)S(=O)(=O)C(F)(F)F (stereo not drawn) [Compound 1-70]	–	–	–	–	–	–	1 (1%-39% of herbicidal efficacy or phytotoxicity)	4 (90%-100% of herbicidal efficacy or phytotoxicity)	4 (90%-100% of herbicidal efficacy or phytotoxicity)	4 (90%-100% of herbicidal efficacy or phytotoxicity)	4 (90%-100% of herbicidal efficacy or phytotoxicity)	4 (90%-100% of herbicidal efficacy or phytotoxicity)
CC1(C)OC(=O)N(Cc2ccccc2NS(=O)(=O)C(F)(F)F)C1(C)C [Compound 1-73]	–	–	–	–	–	–	4 (90%-100% of herbicidal efficacy or phytotoxicity)	4 (90%-100% of herbicidal efficacy or phytotoxicity)	4 (90%-100% of herbicidal efficacy or phytotoxicity)	4 (90%-100% of herbicidal efficacy or phytotoxicity)	4 (90%-100% of herbicidal efficacy or phytotoxicity)	4 (90%-100% of herbicidal efficacy or phytotoxicity)
CC(C)COC(=O)N(c1ccccc1CN1C(=O)OC(C)(C)C1(C)C)S(=O)(=O)C(F)(F)F [Compound 1-74]	–	–	–	–	–	–	4 (90%-100% of herbicidal efficacy or phytotoxicity)	4 (90%-100% of herbicidal efficacy or phytotoxicity)	4 (90%-100% of herbicidal efficacy or phytotoxicity)	4 (90%-100% of herbicidal efficacy or phytotoxicity)	4 (90%-100% of herbicidal efficacy or phytotoxicity)	4 (90%-100% of herbicidal efficacy or phytotoxicity)
